Patent publication US9187497B2, “Substituted pyrido[3,2-e]pyrrolo[1,2-a]pyrazines as inhibitors of poly(ADP-ribose)polymerase (PARP)” (Takeda Phamaceutical Company Limited, priority 2009, dated 2015)

Legend:
[1] = test system: Jurkat cell line; assay: PARP cellular chemopotentiation assay (MTS cell viability with and without TMZ); assay type: cell-based; conditions: ratio of EC50 for inhibition of cell viability without and with 100 μM TMZ; Jurkat cells, 96 hours of treatment
How it was run: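 Jurkat cells, 10,000/well, pre-cultured 24 h, then treated 96 h with serial compound dilutions (0.5% DMSO) with or without 100 μM TMZ. Viability by MTS conversion (OD490), normalized to DMSO controls; EC50 from curve fits, PF50 = EC50 without TMZ / EC50 with TMZ.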

[2] = biological target: T1, PARP (Homo sapiens, UniProt P09874); assay: PARP ELISA colorimetric assay of inhibition of PARP catalytic activity (IC50); assay type: biochemical; conditions: pIC50=-log(IC50), IC50 in molar concentration; ELISA-based PARP kit, 10 minutes of catalysis
T1 construct: purchased Trevigen 4684-096-01 (enzyme); kit 4684-096-K HT
Description: Inhibition Constant (IC50) from PARP ELISA
Inhibition of PARP catalytic activity was determined by use of an ELISA-based colorimetric PARP/Apoptosis Assay kit (part number 4684-096-K HT, Trevigen). To each histone coated well in the 96-well plate supplied by the manufacturer (part number 4677-096-P) is added 39 μl of PARP buffer (part number 4671-096-02) and 1 μl of test compound dissolved in DMSO (diluted serially 3-fold 11 times). After mixing, 5 μl of 0.1 nM PARP (part number 4684-096-01) is added and the solution allowed to stand at ambient temperature for 10 minutes. PARP catalysis is initiated with the addition of 5 μl of 100 μM β-nicotinamide adenine dinucleotide (NAD+) (part number 4684-096-02) with activated DNA (part number 4671-096-06). After 10 minutes of catalysis the reaction is quenched by solvent aspiration followed by irrigation of the assay wells 4 times with phosphate buffered saline (PBS) containing 0.1% t-Octylphenoxypolyethoxyethanol (Triton® X-100). Mouse Anti-poly ADP ribose (PAR) monoclonal antibody, goat antimouse immunoglobulin G (IgG)-horse radish peroxidase (HRP) conjugate and HRP substrate are added according to the manufacture's specifications to generate a colorimetric signal proportional to PARP catalytic activity. An IC50 for the test compound is calculated from the equation Absorbance=(Amax−background)/(1+([cmpd]/IC50)^n)+background fit to the 12 point test compound concentration gradient via nonlinear least squares.

T1 sequence (P09874 whole entry): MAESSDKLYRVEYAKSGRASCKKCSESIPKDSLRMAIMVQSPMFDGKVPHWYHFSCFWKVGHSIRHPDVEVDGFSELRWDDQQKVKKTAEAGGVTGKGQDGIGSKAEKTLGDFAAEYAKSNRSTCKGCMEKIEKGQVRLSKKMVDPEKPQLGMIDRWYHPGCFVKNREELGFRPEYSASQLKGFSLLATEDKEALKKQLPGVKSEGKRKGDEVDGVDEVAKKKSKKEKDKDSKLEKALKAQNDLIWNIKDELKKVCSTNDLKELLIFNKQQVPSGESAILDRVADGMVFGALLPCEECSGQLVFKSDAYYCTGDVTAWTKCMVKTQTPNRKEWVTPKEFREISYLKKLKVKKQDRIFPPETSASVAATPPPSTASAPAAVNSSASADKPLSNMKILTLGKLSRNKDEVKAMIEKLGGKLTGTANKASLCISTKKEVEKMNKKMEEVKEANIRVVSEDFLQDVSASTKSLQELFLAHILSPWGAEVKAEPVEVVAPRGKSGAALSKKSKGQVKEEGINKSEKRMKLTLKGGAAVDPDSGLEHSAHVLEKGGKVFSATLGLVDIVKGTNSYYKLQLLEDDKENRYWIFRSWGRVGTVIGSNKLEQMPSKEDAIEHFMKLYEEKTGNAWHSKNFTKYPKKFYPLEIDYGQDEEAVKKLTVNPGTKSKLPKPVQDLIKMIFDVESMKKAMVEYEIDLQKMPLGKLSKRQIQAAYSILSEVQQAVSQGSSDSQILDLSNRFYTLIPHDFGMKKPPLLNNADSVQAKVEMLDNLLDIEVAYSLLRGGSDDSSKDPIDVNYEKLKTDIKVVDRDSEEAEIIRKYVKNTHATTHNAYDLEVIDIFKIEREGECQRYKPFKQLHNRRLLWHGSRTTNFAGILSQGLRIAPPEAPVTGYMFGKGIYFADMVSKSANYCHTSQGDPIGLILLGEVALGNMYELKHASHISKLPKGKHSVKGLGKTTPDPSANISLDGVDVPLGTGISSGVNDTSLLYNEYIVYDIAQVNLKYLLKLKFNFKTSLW

| IC50 [2] | SMILES | PF50 [1] |
| --- | --- | --- |
| ≥ 50.1 nM | O=C1Nc2cc(CN3CCN(c4ccc(Cl)c(F)c4)CC3)cnc2N2CCC[C@@H]12 [Compound 47, (S)-3-((4-(4-chloro-3-fluorophenyl)piperazin-1-yl)methyl)-6a,7,8,9-tetrahydropyrido[3,2-e]pyrrolo[1,2-a]pyrazin-6(5H)-one] | >10 |
| ≥ 50.1 nM | O=C1Nc2cc(CN3CCN(c4ccc(Cl)cn4)CC3)cnc2N2CCC[C@@H]12 [Compound 42, (S)-3-((4-(5-chloropyridin-2-yl)piperazin-1-yl)methyl)-6a,7,8,9-tetrahydropyrido[3,2-e]pyrrolo[1,2-a]pyrazin-6(5H)-one] | >500 |
| 15.8 to 39.8 nM | O=C1Nc2cc(CN3CCN(c4ccc(Cl)cc4)CC3)cnc2N2CCSCC12 (centres unmarked) [Compound 87, 3-((4-(4-chlorophenyl)piperazin-1-yl)methyl)-6a,7,9,10-tetrahydropyrido[3,2-e][1,4]thiazino[4,3-a]pyrazin-6(5H)-one] | >10 |
| ≤ 12.6 nM | O=C(NC1CC1)c1ccc(N2CCN(Cc3cnc4c(c3)NC(=O)[C@@H]3CCCCN43)CC2)c(F)c1 [Compound 116, (S)—N-cyclopropyl-3-fluoro-4-(4-((6-oxo-6,6a,7,8,9,10-hexahydro-5H-dipyrido[1,2-a:3′,2′-e]pyrazin-3-yl)methyl)piperazin-1-yl)benzamide] | >5000 |
| 15.8 to 39.8 nM | COC(=O)c1ccc(N2CCN(Cc3cnc4c(c3)NC(=O)[C@@H]3CCCN43)CC2)cc1 [Compound 45, (S)-methyl 4-(4-((6-oxo-5,6,6a,7,8,9-hexahydropyrido[3,2-e]pyrrolo[1,2-a]pyrazin-3-yl)methyl)piperazin-1-yl)benzoate] | >10 |
| ≤ 12.6 nM | CCNC(=O)c1ccc(N2CCN(Cc3cnc4c(c3)NC(=O)[C@@H]3CSCCN43)CC2)c(F)c1 [Compound 106, (R)—N-ethyl-3-fluoro-4-(4-((6-oxo-5,6,6a,7,9,10-hexahydropyrido[3,2-e][1,4]thiazino[4,3-a]pyrazin-3-yl)methyl)piperazin-1-yl)benzamide] | >5000 |
| 15.8 to 39.8 nM | O=C(NC1CC1)c1ccc(N2CCN(Cc3cnc4c(c3)NC(=O)[C@@H]3CCCN43)CC2)c(Cl)c1 [Compound 134, (S)-3-chloro-N-cyclopropyl-4-(4-((6-oxo-5,6,6a,7,8,9-hexahydropyrido[3,2-e]pyrrolo[1,2-a]pyrazin-3-yl)methyl)piperazin-1-yl)benzamide] | >5000 |
| ≤ 12.6 nM | CNC(=O)c1ccc(N2CCN(Cc3cnc4c(c3)NC(=O)[C@@H]3CCCCN43)CC2)cc1 [Compound 74, (S)—N-methyl-4-(4-((6-oxo-6,6a,7,8,9,10-hexahydro-5H-dipyrido[1,2-a:3′,2′-e]pyrazin-3-yl)methyl)piperazin-1-yl)benzamide] | >10 |
| 15.8 to 39.8 nM | CC(C)NC(=O)c1ccc(N2CCN(Cc3cnc4c(c3)NC(=O)[C@@H]3CCCN43)CC2)c(F)c1 [Compound 133, (S)-3-fluoro-N-isopropyl-4-(4-((6-oxo-5,6,6a,7,8,9-hexahydropyrido[3,2-e]pyrrolo[1,2-a]pyrazin-3-yl)methyl)piperazin-1-yl)benzamide] | >2000 |
| ≤ 12.6 nM | CCNC(=O)c1ccc(N2CCN(Cc3cnc4c(c3)NC(=O)[C@@H]3CCCN43)CC2)c(C)c1 [Compound 137, (S)—N-ethyl-3-methyl-4-(4-((6-oxo-5,6,6a,7,8,9-hexahydropyrido[3,2-e]pyrrolo[1,2-a]pyrazin-3-yl)methyl)piperazin-1-yl)benzamide] | >5000 |
| 15.8 to 39.8 nM | N#Cc1ccc(N2CCN(Cc3cnc4c(c3)NC(=O)[C@@H]3CCCN43)CC2)cn1 [Compound 123, (S)-5-(4-((6-oxo-5,6,6a,7,8,9-hexahydropyrido[3,2-e]pyrrolo[1,2-a]pyrazin-3-yl)methyl)piperazin-1-yl)picolinonitrile] | >10 |
| ≤ 12.6 nM | CNC(=O)c1ccc(N2CCN(Cc3cnc4c(c3)NC(=O)[C@@H]3CCCN43)CC2)c(C)c1 [Compound 141, (S)—N,3-dimethyl-4-(4-((6-oxo-5,6,6a,7,8,9-hexahydropyrido[3,2-e]pyrrolo[1,2-a]pyrazin-3-yl)methyl)piperazin-1-yl)benzamide] | >500 |
| 15.8 to 39.8 nM | CCNC(=O)c1ccc(N2CCN(Cc3cnc4c(c3)NC(=O)[C@@H]3CCCCN43)CC2)c(Cl)c1 [Compound 110, (S)-3-chloro-N-ethyl-4-(4-((6-oxo-6,6a,7,8,9,10-hexahydro-5H-dipyrido[1,2-a:3′,2′-e]pyrazin-3-yl)methyl)piperazin-1-yl)benzamide] | >5000 |
| ≤ 12.6 nM | CNC(=O)c1ccc(N2CCN(Cc3cnc4c(c3)NC(=O)[C@@H]3CCCN43)CC2)c(Cl)c1 [Compound 136, (S)-3-chloro-N-methyl-4-(4-((6-oxo-5,6,6a,7,8,9-hexahydropyrido[3,2-e]pyrrolo[1,2-a]pyrazin-3-yl)methyl)piperazin-1-yl)benzamide] | >5000 |
| 15.8 to 39.8 nM | Cc1cc(C#N)ccc1N1CCN(Cc2cnc3c(c2)NC(=O)[C@@H]2CCCN32)CC1 [Compound 129, (S)-3-methyl-4-(4-((6-oxo-5,6,6a,7,8,9-hexahydropyrido[3,2-e]pyrrolo[1,2-a]pyrazin-3-yl)methyl)piperazin-1-yl)benzonitrile] | >500 |
| 15.8 to 39.8 nM | Cc1cc(C(=O)NC2CC2)ccc1N1CCN(Cc2cnc3c(c2)NC(=O)[C@@H]2CCCCN32)CC1 [Compound 115, (S)—N-cyclopropyl-3-methyl-4-(4-((6-oxo-6,6a,7,8,9,10-hexahydro-5H-dipyrido[1,2-a:3′,2′-e]pyrazin-3-yl)methyl)piperazin-1-yl)benzamide] | >2000 |
| 15.8 to 39.8 nM | N#Cc1ccc(N2CCN(Cc3cnc4c(c3)NC(=O)[C@@H]3CCN43)CC2)cc1 [Compound 102, (S)-4-(4-((6-oxo-6,6a,7,8-tetrahydro-5H-azeto[1,2-a]pyrido[3,2-e]pyrazin-3-yl)methyl)piperazin-1-yl)benzonitrile] | ≧0 |
| 15.8 to 39.8 nM | C[C@H]1CN(c2ccc(C#N)cc2)CCN1Cc1cnc2c(c1)NC(=O)[C@@H]1CSCCN21 [Compound 105, 4-((S)-3-methyl-4-(((R)-6-oxo-5,6,6a,7,9,10-hexahydropyrido[3,2-e][1,4]thiazino[4,3-a]pyrazin-3-yl)methyl)piperazin-1-yl)benzonitrile] | >10 |
| 15.8 to 39.8 nM | CCNC(=O)c1ccc(N2CCN(Cc3cnc4c(c3)NC(=O)[C@@H]3CSCCN43)CC2)c(Cl)c1 [Compound 107, (R)-3-chloro-N-ethyl-4-(4-((6-oxo-5,6,6a,7,9,10-hexahydropyrido[3,2-e][1,4]thiazino[4,3-a]pyrazin-3-yl)methyl)piperazin-1-yl)benzamide] | >2000 |
| ≤ 12.6 nM | N#Cc1ccc(N2CCN(Cc3cnc4c(c3)NC(=O)[C@@H]3CCCCN43)CC2)nc1 [Compound 72, (S)-6-(4-((6-oxo-6,6a,7,8,9,10-hexahydro-5H-dipyrido[1,2-a:3′,2′-e]pyrazin-3-yl)methyl)piperazin-1-yl)nicotinonitrile] | >500 |
| ≥ 50.1 nM | O=C1Nc2cc(CN3CCN(c4ccc(Br)cc4)CC3)cnc2N2CCC[C@@H]12 [Compound 37, (S)-3-((4-(4-bromophenyl)piperazin-1-yl)methyl)-6a,7,8,9-tetrahydropyrido[3,2-e]pyrrolo[1,2-a]pyrazin-6(5H)-one] | >2000 |
| 15.8 to 39.8 nM | N#Cc1ccc(N2CCN(Cc3cnc4c(c3)NC(=O)CC3CCCN43)CC2)cc1 (centres unmarked) [Compound 103, 4-(4-((6-oxo-6,7,7a,8,9,10-hexahydro-5H-pyrido[3,2-b]pyrrolo[1,2-d][1,4]diazepin-3-yl)methyl)piperazin-1-yl)benzonitrile] | ≧0 |
| ≤ 12.6 nM | N#Cc1ccc(N2CCN(Cc3cnc4c(c3)NC(=O)[C@@H]3CSCCN43)CC2)cc1 [Compound 90, (R)-4-(4-((6-oxo-5,6,6a,7,9,10-hexahydropyrido[3,2-e][1,4]thiazino[4,3-a]pyrazin-3-yl)methyl)piperazin-1-yl)benzonitrile] | >10 |
| ≥ 50.1 nM | O=C1Nc2cc(CC3CCN(c4ccc(Cl)cc4)CC3)cnc2N2CCC[C@@H]12 [Compound 122, (S)-3-((1-(4-chlorophenyl)piperidin-4-yl)methyl)-6a,7,8,9-tetrahydropyrido[3,2-e]pyrrolo[1,2-a]pyrazin-6(5H)-one] | ≧0 |

| SMILES | IC50 [2] | PF50 [1] |
| --- | --- | --- |
| O=C1Nc2cc(CN3CC=C(c4ccc(Cl)cc4)CC3)cnc2N2CCCC[C@@H]12 [Compound 68, (S)-3-((4-(4-chlorophenyl)-5,6-dihydropyridin-1(2H)-yl)methyl)-7,8,9,10-tetrahydro-5H-dipyrido[1,2-a:3′,2′-e]pyrazin-6(6aH)-one] | ≤ 12.6 nM | >5000 |
